In patent US12460243B2, “Mass spectrometry determination of the sensitivity or resistance of bacteria to an antibiotic” (priority 2019, dated 2025):
Bridge positions count the residues as written; N and C are the ends. Square brackets hold non-standard residues; d marks the D form. Peptide text beside a SMILES is read from it. * marks the point of attachment. Heptanoyl(6-Me) = CC(C)CCCCC(=O)*; Dab = NCC[C@H](N)C(=O)O

Tested on: Escherichia coli
Assay: MALDI-TOF detection of characteristic proteins released after incubation with colistin (examples II-IV, centrifugation)
Format: cell-based
Details: colistin 2.5 mg/ml
Procedure: This test was carried out using the following steps: • preparing a suspension of strains EC_S and EC_R of E. coli at 1 McFarland (McF) in water (suspension medium, bioMérieux reference 70700), • preparing a solution of colistin sulfate (Sigma, reference C4461) at a concentration of 5 mg/ml in pure water (taking into account the colistin titer indicated by the manufacturer), • mixing 250 μl of each suspension with 250 μl of colistin to obtain a solution of microorganism at 0.5 McF and at a concentration of 2.5 mg/ml of colistin, • homogenizing using a vortex for 5 seconds, • incubating the mixture for 4 hours at 37° C., • homogenizing using a vortex for 5 seconds, • centrifuging at 4700 rev/min (1500 g) for 5 minutes, • depositing 1 μl of the supernatant on a disposable target (bioMérieux reference 410893), • depositing 1 μl of HCCA matrix (bioMérieux, reference 411071) on the drop of supernatant, • analyzing the sample by MALDI-TOF spectrometry on VITEK-MS Plus (bioMérieux) with a method suitable for microbiology, i.e. with a positive ionization mode and a mass range from 2000 to 20 000 Th. • accumulating 100 profiles from 10 firings and comparing the data with the data contained in the databases for E. coli, • observing the presence or absence of protein peaks characteristic of E. coli. • determining the sensitivity to colistin if proteins characteristic of E. coli are detected or the resistance if no protein of E. coli is detected.
The E. coli strains S and R16 are analyzed with the same protocol as in example II apart from the incubation time of 30 minutes at 37° C. The S strain is sensitive to colistin and the R16 strain is resistant to colistin.
The same E. coli strains R16 and S are analyzed with the same protocol as in example III apart from incubation at 50° C.

CC(C)CCCCC(=O)N[C@@H](CCN)C(=O)N[C@H](C(=O)N[C@@H](CCN)C(=O)N[C@H]1CCNC(=O)[C@H]([C@@H](C)O)NC(=O)[C@H](CCN)NC(=O)[C@H](CCN)NC(=O)[C@H](CC(C)C)NC(=O)[C@@H](CC(C)C)NC(=O)[C@H](CCN)NC1=O)[C@@H](C)O [colistin] ({Heptanoyl(6-Me)}-[Dab]T[Dab][Dab][Dab][dL]L[Dab][Dab]T; lactam 4-C)
sensitivity or resistance to colistin by MALDI-TOF (strain EC_R, 4 h at 37° C.): resistant | sensitivity or resistance to colistin by MALDI-TOF (strain EC_S, 4 h at 37° C.): sensitive | sensitivity or resistance to colistin by MALDI-TOF (strain R16, 30 min at 37° C.): resistance | sensitivity or resistance to colistin by MALDI-TOF (strain R16, 30 min at 50° C.): resistance | sensitivity or resistance to colistin by MALDI-TOF (strain S, 30 min at 37° C.): sensitive | sensitivity or resistance to colistin by MALDI-TOF (strain S, 30 min at 50° C.): sensitivity
